How the values were obtained:
ARE of the PSA promoter = assay: Quantitative DNase I footprint titration on pAR-PSA fragment; format: binding
From the text: Plasmid pAR-PSA was constructed by inserting a 70-bp sequence from the PSA promoter containing the ARE into pUC19 plasmid. […] Detailed experimental protocols are reported elsewhere (44). The proximal PSA promoter contains the ARE [NT] ID NO:15) (FIG. 8A). […] However, 1 is observed to bind the sequence [NT]≈12 bp 5' to the ARE, which is an expected binding site for this molecule.

[1] = tested on: binding of LNCaP nuclear extract factors to the ARE site in the PSA promoter; assay: Electrophoretic mobility shift assay with DHT-stimulated LNCaP nuclear extract; format: biochemical
Procedure: containing the PSA promoter ARE (underlined) was end-labeled with ^32P and annealed to its complement. Polyamides 1 and 2 were incubated with the duplex for 3 h in previously optimized buffer conditions (45). Nuclear extract from DHT-treated LNCaP cells (Genetex, San Antonio, Tex.) was then added for an additional 45 min. Complexes were run on a 5% polyacrylamide gel and visualized on a phosphorimager.
The effects of polyamides 1 and 2 on the binding of factors present in the nuclear extract isolated from DHT-stimulated LNCaP cells to the ARE site in the PSA promoter was measured by an electrophoretic mobility shift assay (FIG. 8D).

[2] = tested on: PSA mRNA expression in LNCaP cells; assay: DHT-induced PSA mRNA in LNCaP cells, quantitative real-time RT-PCR; format: cell-based
Procedure: LNCaP cells (ATCC) were plated in 24-well plates at a density of 40-50×10^3 cells per well (80-100×10^3 cells per ml) in RPMI medium 1640 (ATCC) supplemented with 10% FBS (Irvine Scientific, Santa Ana, Calif.). After 72 h, the medium was replaced with RPMI medium 1640 containing 10% charcoal stripped FBS with or without polyamides at the designated concentrations. Cells were grown for an additional 48 h and then treated with 1 nM DHT for 16 h. When appropriate, bicalutamide was added 2 h before DHT stimulation. Isolation of RNA and cDNA synthesis was performed as described (21). Quantitative real-time RT-PCR was performed with SYBR Green PCR Master Mix (Applied Biosystems, Foster City, Calif.) on an ABI 7300 instrument. PSA mRNA was measured relative to β-glucuronidase as an endogenous control.

[3] = tested on: FKBP5 mRNA expression in LNCaP cells; assay: DHT-induced FKBP5 mRNA in LNCaP cells; format: cell-based
[4] = tested on: PSA mRNA expression in LNAR cells; assay: PSA mRNA expression in LNAR cells (hormone refractory, over-express AR); format: cell-based
From the text: The cell line LNAR was used, which has been engineered to over-express AR (14). LNAR cells over-express AR and form hormone refractory tumors when xenografted in mice (14).

[5] = tested on: DNA damage markers (γH2A.X, ATM, DNA-PKcs, p53, Chk2); assay: Immunoblot of DNA damage markers, p53 and PARP in LNCaP cells; format: cell-based
Procedure: Samples for immunoblot analysis were prepared by plating LNCaP or DU145 cells at 1 million cells per 10 cm plate. Cells were allowed to adhere for 24-36 hr prior to incubation with compound. After the appropriate incubation time cells were washed once with ice cold PBS and harvested in ice cold 125 μL lysis buffer (50 mM Tris-HCl pH 7.4, 150 mM NaCl, 1 mM EDTA, 1% Triton X100) containing protease inhibitor cocktail (Roche), 1 mM PMSF (Sigma), and phosphatase inhibitors (Sigma). Samples were allowed incubate on ice for 10 min with vortexing once every 3 min. Cellular debris was pelleted by spinning at 14,000 rpm for 15 min to collect the supernatant. Samples were then quantified for protein content with the Bradford assay (Bio-rad) and boiled with 4× sample buffer (Li-Cor) for 5 min. Protein electrophoresis was performed in 4-20% precast Tris glycine SDS gels (Bio-rad) and transferred to PVDF membranes. Membrane blocking was done with Odyssey Blocking Buffer (Li-Cor). The following antibodies used to probe changes in protein levels or phosphorylation states: RBP1 (Santa Cruz Biotechnology, N20), p53 (Santa Cruz Biotechnology, DO1), phospho-Chk2-Thr68 (Cell Signaling Technology), Phospho-p53-Ser15 (Cell Signaling Technology), phosphor-H2A.X-Ser139 (Cell Signaling Technology), phosphor-ATM-Ser1981 (Abcam), phosphor-DNA-PKcs-Ser2056 (Abcam), and […] (Abcam). […]

LNCaP xenografts = LNCaP xenografts in male NSG mice; format: in vivo
Procedure: All mice experiments were conducted under an approved protocol by the Institutional Animal Care and Use Committee of the California Institute of Technology. Male NOD scid gamma (NSG) mice were purchased from The Jackson Laboratory. The animals were individually caged and maintained on a standard light-dark cycle. NSG mice were engrafted with LNCaP cells (2.5 million cells) in a mixture of 1:1 media and matrigel in the left flank. Tumors were grown to ˜100 mm^3 (L×W^2) before beginning treatment with compound or vehicle. Py-Im polyamide 77 was administered once every 3 days in a 5% DMSO:PBS vehicle solution until the experiment endpoint.
To investigate if polyamide 77 could be detected in peripheral blood after SC injections, 120 nmol of 77 (in 5% DMSO/PBS) was injected into the right flank of four C57BL/6 mice. Blood was collected from anesthetized mice via retroorbital collection at 5 minutes, 4 h, and 12 h after injection, then processed by methods previously described and analyzed by HPLC (35). For measurement of serum PSA (KLK3) and uric acid, blood was collected from anesthetized mice via retroorbital collection at experimental endpoint and serum was separated from blood by centrifugation. Serum PSA (KLK3) was measured by ELISA (R&D systems) according to manufacturer's instructions. Uric acid was measured as described (36).
Tumors were resected immediately after euthanasia and fixed in neutral buffered formalin. Selected samples were embedded in paraffin, sectioned and stained with hematoxylin and eosin (H&E). Selected sections were assessed by deoxynucleotidyltransferase dUTP nick-end labeling (TUNEL) as described (45).
Mice experiments were conducted under an approved protocol by the Institutional Animal Care and Use Committee of the California Institute of Technology. Male C57BL6/J mice and male NSG mice were purchased from The Jackson Laboratory. All animals were maintained on a standard light-dark cycle. LNCaP cells (2.5 million cells) were engrafted in a mixture of 1:1 media and matrigel in the left flank of NSG mice. Tumors were allowed grow to ˜200 mm^3 (0.5×L×W^2) before treatment. Py-Im polyamide 78 was administered by SC injection once every 3 d at 1 mg/kg in a 20% (vol/vol) DMSO:Normal saline vehicle solution for 6 injections. Animals were sacrificed two days after the final injection. Animal weight and general health were monitored daily. Fourteen animals were used for each treatment group.

p53 = p53 protein ELISA in LNCaP cells; format: cell-based; settings: polyamide 10 μM 72 hr; doxorubicin 1 μM 24 hr
Procedure: Cellular levels of RPB1 and p53 protein in LNCaP cells after treatment with 10 μM 3 for 72 h were determined by ELISA. Cells treated with DMSO vehicle and 1 μM doxorubicin for 24 h were used as control. Cellular RBP1 levels were determined by a RPB1 specific ELISA kit (Cusabio Life Sciences) according to manufacturer's instructions. Total cellular p53 protein level was determined with a pan-p53 ELISA kit (Roche) according to manufacturer's instructions. Assays were performed in biological triplicates.

[6] = 20 nmol SC every three days, three injections

CN(CCCNC(=O)c1cccc(C(=O)O)c1)CCCNC(=O)c1cc(NC(=O)c2cc(NC(=O)c3cc(NC(=O)c4nc(NC(=O)[C@H](N)CCNC(=O)c5cc(NC(=O)c6cc(NC(=O)c7cc(NC(=O)c8nccn8C)cn7C)cn6C)cn5C)cn4C)cn3C)cn2C)cn1C [Polyamide 1, ImPyPyPy-2-(R)H^2Nγ-ImPyPyPy-NHMe-IPA]
binding at the other half-site of the ARE (ARE of the PSA promoter; 5′-AGTGCT-3′, single base pair mismatch site): Minimal binding
Ka (ARE of the PSA promoter; ARE consensus half-site 5′-AGAACA-3′): 8.3±1.7×10^9 M^−1
Ka (ARE of the PSA promoter; ARE half site 5′-AGAACA-3′, FIG. 8 legend): 8.3±1.7×10^9
Kd (ARE of the PSA promoter; half-site of the ARE of the PSA promoter): subnanomolar
concentration inhibiting binding to the labeled duplex [1]: ≥ 10 nM
AR mRNA [2]: minimally affected
effects on cell growth ([2]; LNCaP, over the course of the experiment): no obvious detrimental effects on cell growth
inhibition of DHT-induced expression of FKBP5 [3]: ≈ 60%
effect on DHT-induced PSA mRNA expression in LNAR cells [4]: maintains efficacy
cellular markers of DNA damage (phosphorylation) [5]: did not induce cellular markers of DNA damage
p53 accumulation and PARP cleavage [5]: modest accumulation of p53 and PARP cleavage were observed
tumor weight, mean (LNCaP xenografts; [6]): 112 mg
tumor weight, median (LNCaP xenografts; [6]): 94 mg
tumor weight, range (LNCaP xenografts; [6]): 47 to 201 mg
body weight, LNCaP tumor-bearing NSG mice (LNCaP xenografts; 20 nmol, three injections): exhibited weight loss
distress and weight, tumor-free NSG mice (LNCaP xenografts; 20 nmol, three injections): no signs of distress or weight loss
reduction of tumor growth (LNCaP xenografts; after three rounds of treatment, vs vehicle): 64%
serum PSA post-treatment (LNCaP xenografts; compared to vehicle): lower
immunohistological analysis of tumors (LNCaP xenografts; mouse, in vivo): evidence of cell death by TUNEL stain
serum uric acid (LNCaP xenografts; tumor bearing mice, vs vehicle and non-tumor bearing treated mice): increases serum uric acid
cellular level of p53 protein (p53): increases
